Data published in PubChem BioAssay (NCI).
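The compound was tested at five concentrations on cells cultured in 96-well plates, with a 48-hour exposure period. Abbreviation: GI50, concentration required for 50% inhibition of growth. TGI: concentration producing complete growth inhibition.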

What was measured:
Experiment in all cases: NCI anticancer screen, dose series, 48 h
HCT-116 colon = test system: HCT-116 colon
RPMI-8226 leukemia = test system: RPMI-8226 leukemia
SF-539 CNS = test system: SF-539 CNS
SR leukemia = test system: SR leukemia
HOP-62 NSCLC = test system: HOP-62 NSCLC
SF-268 CNS = test system: SF-268 CNS
IGROV1 ovarian = test system: IGROV1 ovarian
MALME-3M melanoma = test system: MALME-3M melanoma
HOP-92 NSCLC = test system: HOP-92 NSCLC
SW-620 colon = test system: SW-620 colon
TK-10 renal = test system: TK-10 renal
SF-295 CNS = test system: SF-295 CNS
NCI-H460 lung = test system: NCI-H460 lung
SK-MEL-2 melanoma = test system: SK-MEL-2 melanoma
RXF 393 renal = test system: RXF 393 renal
PC-3 prostate = test system: PC-3 prostate
HL-60(TB) leukemia = test system: HL-60(TB) leukemia
HCT-15 colon = test system: HCT-15 colon
UACC-62 melanoma = test system: UACC-62 melanoma
KM12 colon = test system: KM12 colon
NCI-H522 lung = test system: NCI-H522 lung
OVCAR-5 ovarian = test system: OVCAR-5 ovarian
HS 578T breast = test system: HS 578T breast
MCF7 breast = test system: MCF7 breast
NCI-H23 lung = test system: NCI-H23 lung
UO-31 renal = test system: UO-31 renal
HT29 colon = test system: HT29 colon
LOX IMVI melanoma = test system: LOX IMVI melanoma
SK-OV-3 ovarian = test system: SK-OV-3 ovarian
SN12C renal = test system: SN12C renal
NCI/ADR-RES ovarian = test system: NCI/ADR-RES ovarian
SK-MEL-5 melanoma = test system: SK-MEL-5 melanoma
SNB-19 CNS = test system: SNB-19 CNS
SNB-75 CNS = test system: SNB-75 CNS
U251 CNS = test system: U251 CNS
OVCAR-4 ovarian = test system: OVCAR-4 ovarian
ACHN renal = test system: ACHN renal
SK-MEL-28 melanoma = test system: SK-MEL-28 melanoma
MDA-MB-231 breast = test system: MDA-MB-231 breast
HCC-2998 colon = test system: HCC-2998 colon
OVCAR-3 ovarian = test system: OVCAR-3 ovarian
T-47D breast = test system: T-47D breast
A549 NSCLC = test system: A549 NSCLC
NCI-H226 lung = test system: NCI-H226 lung
CAKI-1 renal = test system: CAKI-1 renal
A498 renal = test system: A498 renal
786-0 renal = test system: 786-0 renal
MDA-MB-435 = test system: MDA-MB-435
COLO 205 colon = test system: COLO 205 colon
DU-145 prostate = test system: DU-145 prostate
MOLT-4 leukemia = test system: MOLT-4 leukemia
OVCAR-8 ovarian = test system: OVCAR-8 ovarian
K-562 leukemia = test system: K-562 leukemia
EKVX NSCLC = test system: EKVX NSCLC
CCRF-CEM leukemia = test system: CCRF-CEM leukemia
M14 melanoma = test system: M14 melanoma
UACC-257 melanoma = test system: UACC-257 melanoma
BT-549 breast = test system: BT-549 breast
MDA-N = test system: MDA-N

For `CN[C@@H](C)C(=O)N[C@H]1CCS[C@H]2CC(C)(C)[C@@H](C(=O)N[C@H]3c4ccccc4C[C@H]3OCC#CC#CCO[C@@H]3Cc4ccccc4[C@@H]3NC(=O)[C@H]3N4C(=O)[C@@H](NC(=O)[C@H](C)NC)CCS[C@H]4CC3(C)C)N2C1=O`, the GI50 (HCT-116 colon) was greater than 28.8 µM, the TGI (HCT-116 colon) was greater than 50 µM and the GI50 (RPMI-8226 leukemia) was 2.25 µM. The TGI (RPMI-8226 leukemia) was greater than 36 µM, the GI50 (SF-539 CNS) was 0.0118 µM and the TGI (SF-539 CNS) was 2.4 µM. It also gave a GI50 (SR leukemia) of 0.0264 µM, a TGI (SR leukemia) greater than 22.1 µM and a GI50 (HOP-62 NSCLC) of 3.72 µM. For the same compound, the TGI (HOP-62 NSCLC) was greater than 50 µM, the GI50 (SF-268 CNS) was 41.9 µM and the TGI (SF-268 CNS) was greater than 50 µM. For the same compound, the GI50 (IGROV1 ovarian) was 32.1 µM, the TGI (IGROV1 ovarian) was greater than 50 µM and the GI50 (MALME-3M melanoma) was 0.00951 µM. For the same compound, the TGI (MALME-3M melanoma) was 0.115 µM, the GI50 (HOP-92 NSCLC) was 2.99 µM and the TGI (HOP-92 NSCLC) was 14.3 µM. For the same compound, the GI50 (SW-620 colon) was greater than 50 µM, the TGI (SW-620 colon) was greater than 50 µM and the GI50 (TK-10 renal) was greater than 50 µM. It also gave a TGI (TK-10 renal) greater than 50 µM, a GI50 (SF-295 CNS) greater than 50 µM and a TGI (SF-295 CNS) greater than 50 µM. For the same compound, the GI50 (NCI-H460 lung) was 24.6 µM, the TGI (NCI-H460 lung) was greater than 50 µM and the GI50 (SK-MEL-2 melanoma) was 0.174 µM. It also gave a TGI (SK-MEL-2 melanoma) of 13.9 µM, a GI50 (RXF 393 renal) of 0.423 µM and a TGI (RXF 393 renal) of 5.24 µM. The GI50 (PC-3 prostate) was greater than 28.4 µM, the TGI (PC-3 prostate) was greater than 50 µM and the GI50 (HL-60(TB) leukemia) was 0.0759 µM. It also gave a TGI (HL-60(TB) leukemia) of 2.33 µM, a GI50 (HCT-15 colon) greater than 50 µM and a TGI (HCT-15 colon) greater than 50 µM. For the same compound, the GI50 (UACC-62 melanoma) was greater than 50 µM, the TGI (UACC-62 melanoma) was greater than 50 µM and the GI50 (KM12 colon) was 30.5 µM. For the same compound, the TGI (KM12 colon) was greater than 50 µM, the GI50 (NCI-H522 lung) was 7.38 µM and the TGI (NCI-H522 lung) was 32 µM. For the same compound, the GI50 (OVCAR-5 ovarian) was greater than 50 µM, the TGI (OVCAR-5 ovarian) was greater than 50 µM and the GI50 (HS 578T breast) was 15.5 µM. The TGI (HS 578T breast) was greater than 50 µM, the GI50 (MCF7 breast) was 5.87 µM and the TGI (MCF7 breast) was 17.8 µM. For the same compound, the GI50 (NCI-H23 lung) was greater than 32 µM, the TGI (NCI-H23 lung) was greater than 50 µM and the GI50 (UO-31 renal) was greater than 50 µM. The TGI (UO-31 renal) was greater than 50 µM, the GI50 (HT29 colon) was 20.2 µM and the TGI (HT29 colon) was greater than 50 µM. It also gave a GI50 (LOX IMVI melanoma) of 13.8 µM, a TGI (LOX IMVI melanoma) greater than 50 µM and a GI50 (SK-OV-3 ovarian) of less than 0.005 µM. The TGI (SK-OV-3 ovarian) was less than 0.005 µM, the GI50 (SN12C renal) was greater than 46.9 µM and the TGI (SN12C renal) was greater than 50 µM. It also gave a GI50 (NCI/ADR-RES ovarian) greater than 50 µM, a TGI (NCI/ADR-RES ovarian) greater than 50 µM and a GI50 (SK-MEL-5 melanoma) of 4.75 µM. The TGI (SK-MEL-5 melanoma) was greater than 16.8 µM, the GI50 (SNB-19 CNS) was greater than 50 µM and the TGI (SNB-19 CNS) was greater than 50 µM. For the same compound, the GI50 (SNB-75 CNS) was 1.99 µM, the TGI (SNB-75 CNS) was 21.4 µM and the GI50 (U251 CNS) was greater than 50 µM. It also gave a TGI (U251 CNS) greater than 50 µM, a GI50 (OVCAR-4 ovarian) of 0.0146 µM and a TGI (OVCAR-4 ovarian) of 0.203 µM. The GI50 (ACHN renal) was greater than 50 µM, the TGI (ACHN renal) was greater than 50 µM and the GI50 (SK-MEL-28 melanoma) was greater than 46.6 µM. The TGI (SK-MEL-28 melanoma) was greater than 50 µM, the GI50 (MDA-MB-231 breast) was less than 0.005 µM and the TGI (MDA-MB-231 breast) was 0.0239 µM. It also gave a GI50 (HCC-2998 colon) of 19.5 µM, a TGI (HCC-2998 colon) greater than 50 µM and a GI50 (OVCAR-3 ovarian) of 12 µM. It also gave a TGI (OVCAR-3 ovarian) greater than 43.9 µM, a GI50 (T-47D breast) of 29.9 µM and a TGI (T-47D breast) greater than 50 µM. The GI50 (A549 NSCLC) was greater than 50 µM, the TGI (A549 NSCLC) was greater than 50 µM and the GI50 (NCI-H226 lung) was greater than 50 µM. The TGI (NCI-H226 lung) was greater than 50 µM, the GI50 (CAKI-1 renal) was greater than 50 µM and the TGI (CAKI-1 renal) was greater than 50 µM. It also gave a GI50 (A498 renal) greater than 50 µM, a TGI (A498 renal) greater than 50 µM and a GI50 (786-0 renal) greater than 50 µM. The TGI (786-0 renal) was greater than 50 µM, the GI50 (MDA-MB-435) was greater than 23 µM and the TGI (MDA-MB-435) was greater than 50 µM. For the same compound, the GI50 (COLO 205 colon) was 25.2 µM, the TGI (COLO 205 colon) was greater than 50 µM and the GI50 (DU-145 prostate) was 20.6 µM. It also gave a TGI (DU-145 prostate) greater than 50 µM, a GI50 (MOLT-4 leukemia) of 9.86 µM and a TGI (MOLT-4 leukemia) of 22.4 µM. It also gave a GI50 (OVCAR-8 ovarian) of 35.9 µM, a TGI (OVCAR-8 ovarian) greater than 50 µM and a GI50 (K-562 leukemia) of 12.9 µM. It also gave a TGI (K-562 leukemia) greater than 33.4 µM, a GI50 (EKVX NSCLC) greater than 38.9 µM and a TGI (EKVX NSCLC) greater than 50 µM. For the same compound, the GI50 (CCRF-CEM leukemia) was 0.0966 µM, the TGI (CCRF-CEM leukemia) was 12.3 µM and the GI50 (M14 melanoma) was greater than 50 µM. For the same compound, the TGI (M14 melanoma) was greater than 50 µM, the GI50 (UACC-257 melanoma) was greater than 50 µM and the TGI (UACC-257 melanoma) was greater than 50 µM. For the same compound, the GI50 (BT-549 breast) was 0.00762 µM and the TGI (BT-549 breast) was 6.38 µM.

`Cc1ccc(C(=O)N/N=C(\N=Nc2cccc([N+](=O)[O-])c2)c2ccc(N(C)C)cc2)cc1` gave a TGI (HCT-116 colon) greater than 100 µM, a TGI (RPMI-8226 leukemia) greater than 100 µM and a TGI (SF-539 CNS) greater than 100 µM. For the same compound, the TGI (SF-268 CNS) was greater than 100 µM, the TGI (IGROV1 ovarian) was greater than 100 µM and the TGI (HOP-92 NSCLC) was greater than 100 µM. It also gave a TGI (SW-620 colon) greater than 100 µM, a TGI (TK-10 renal) greater than 100 µM and a TGI (SF-295 CNS) greater than 100 µM. The TGI (NCI-H460 lung) was greater than 100 µM, the TGI (SK-MEL-2 melanoma) was greater than 100 µM and the TGI (PC-3 prostate) was greater than 100 µM. The TGI (HL-60(TB) leukemia) was greater than 100 µM, the TGI (HCT-15 colon) was greater than 100 µM and the TGI (KM12 colon) was greater than 100 µM. For the same compound, the TGI (NCI-H522 lung) was greater than 100 µM, the TGI (OVCAR-5 ovarian) was greater than 100 µM and the TGI (HS 578T breast) was greater than 100 µM. The TGI (MCF7 breast) was greater than 100 µM, the TGI (NCI-H23 lung) was greater than 100 µM and the TGI (UO-31 renal) was greater than 100 µM. The TGI (HT29 colon) was greater than 100 µM, the TGI (MDA-N) was greater than 100 µM and the TGI (LOX IMVI melanoma) was greater than 100 µM. For the same compound, the TGI (SN12C renal) was greater than 100 µM, the TGI (NCI/ADR-RES ovarian) was greater than 100 µM and the TGI (SK-MEL-5 melanoma) was greater than 100 µM. For the same compound, the TGI (SNB-19 CNS) was greater than 100 µM, the TGI (U251 CNS) was greater than 100 µM and the TGI (OVCAR-4 ovarian) was greater than 100 µM. It also gave a TGI (SK-MEL-28 melanoma) greater than 100 µM, a TGI (MDA-MB-231 breast) greater than 100 µM and a TGI (HCC-2998 colon) greater than 100 µM. The TGI (OVCAR-3 ovarian) was greater than 100 µM, the TGI (A549 NSCLC) was greater than 100 µM and the TGI (NCI-H226 lung) was greater than 100 µM. It also gave a TGI (CAKI-1 renal) greater than 100 µM, a TGI (786-0 renal) greater than 100 µM and a TGI (MDA-MB-435) greater than 100 µM. For the same compound, the TGI (COLO 205 colon) was greater than 100 µM, the TGI (DU-145 prostate) was 85.5 µM and the TGI (MOLT-4 leukemia) was greater than 100 µM. The TGI (OVCAR-8 ovarian) was greater than 100 µM, the TGI (K-562 leukemia) was greater than 100 µM and the TGI (EKVX NSCLC) was greater than 100 µM. It also gave a TGI (CCRF-CEM leukemia) greater than 100 µM, a TGI (M14 melanoma) greater than 100 µM and a TGI (UACC-257 melanoma) greater than 100 µM. For the same compound, the TGI (BT-549 breast) was greater than 100 µM.
